According to patent US20260198495A1, “BINARY INSECTICIDE COMPOSITION AND USE THEREOF” (SHENYANG SINOCHEM AGROCHEMICALS R & D CO., LTD., priority 2022, published 2026):
≈ marks a conversion by molar mass, not a printed value. Where two headings read alike, the source gives them in different places.

Experiments:
Assay type in all cases: in vivo
[1] = tested on: Sitobion miscanthi (Fabricius); assay: whole plant or invertebrate; settings: for Measured mortality rate: single pesticide, 48 hours
Procedure: Test target: Sitobion miscanthi (Fabricius).
(§1) Preparation of the pesticide solution: according to different test requirements, the test samples were accurately weighed respectively with an electronic analytical balance. The technical pesticides were dissolved in acetone, and then diluted with 0.1% Tween 80 water into a series of pesticide solutions with a certain concentration gradient according to the experimental design dosage.
Experimental method: first, wheat seedlings with uniform and consistent Sitobion miscanthi (Fabricius) were selected, with about 30-40 insects on each pot of wheat. Then, they were evenly sprayed with the pesticide solution in the order from low dosage to high dosage according to the experimental design, with 2.5 mL for each pot and 3 replicates for each treatment. In addition, a blank control CK was set up.
(§2) The treated test materials were placed in an observation room, and the temperature, humidity and illumination of the observation room could be adjusted as needed. The number of dead and alive insects was investigated 48 hours later, and the corrected mortality rate was calculated using the Abbott's formula.
The synergism of the mixture was evaluated by the Bliss method. According to the concept of independent joint action he proposed, Bliss believes that the theoretical mortality rate P when insecticides are used in combination can be calculated by the following formula: […]
Pm is the measured mortality rate (%) of the target when the first active ingredient is at a concentration of m; and Pn is the measured mortality rate (%) of the target when the second active ingredient is used at a concentration of n.
(§3) If the actual mortality rate of the target after the two active ingredients are mixed at a certain concentration is greater than theoretical mortality rate P, it is determined that the two active ingredients have a synergistic effect when used in combination at the set concentration, and otherwise, they have an antagonistic effect.

[2] = tested on: 3rd-instar larvae of Pyrausta nubilalis Hubern; assay: Synergism assay (Bliss) of I-72 + cartap, monosultap, bisultap, Example 5, Table 5; settings: 72 h
Procedure: Test subject: 3rd-instar larvae of Pyrausta nubilalis Hubern, a sensitive strain reared indoors.
(§4) Test conditions: temperature: 24-26° C., humidity: RH 60%, and illumination: L:D=14:10
Preparation method: the test pesticides were accurately weighed respectively with an electronic analytical balance. After the two technical materials were respectively added into an appropriate amount of solvent and completely dissolved, the stock solution of the required concentration was prepared with water containing 0.1% Tween 80. The stock solutions of the two active ingredients were mixed in a certain ratio to prepare a mixed solution, which was then diluted respectively into a series of pesticide solutions with a certain concentration gradient according to the experimental design dosage.
Experimental method: the artificial diet-pesticide film method was adopted. A standard clean 24-well culture plate was selected. 1 ml of artificial diet was added to each well. After the diet cooled and solidified, a quantitative amount of a pesticide solution was added to the culture plate using a continuous sampler, and then it was air-dried naturally in the shade. The standard test insects were introduced, with 1 insect in each well, a total of 48 insects. The treated test insects were placed in an observation room under certain conditions. The reaction of the test insects was regularly observed, and the number of dead and live insects was investigated 72 h later.
The evaluation method adopted was the Bliss method. This method is applicable to the qualitative screening of insecticidal compositions. According to the concept of independent joint action he proposed, Bliss believes that the theoretical mortality rate P when insecticides are used in combination can be calculated by the following formula: […]
Pm is the mortality rate (%) of the target when the first active ingredient is at a concentration of m; and Pn is the mortality rate (%) of the target when the second active ingredient is at a concentration of n.
as §3

[3] = tested on: 3rd-instar larvae of Ostrinia furnacalis Guenee; assay: Synergism screening (Bliss) of I-72 + ecdysteroid and juvenile hormone insecticides, Example 51, Table 51; settings: for Measured mortality rate: single pesticide, 72 hours
Procedure: Test target: 3rd-instar larvae of Ostrinia furnacalis Guenee.
as §1
(§5) Experimental method: first, tender corn stems were selected and dipped in the prepared pesticide solution for 10 s in the order from low dosage to high dosage according to the experimental design. After natural air-drying in the shade, they were placed in a 9-cm-diameter Petri dish with filter paper, and uniform and healthy test insects were introduced, with 10 insects for each treatment and 3 replicates for each treatment. In addition, a blank control (CK) was set up.
as §2, with “72” for “48”
The synergism of the mixture was evaluated by adopting the Bliss method, as in Example 5.

[4] = tested on: early 2nd-instar grubs of Holotrichia diomphalia Bates; assay: whole plant or invertebrate
Procedure: Test target: early 2nd-instar grubs of Holotrichia diomphalia Bates.
as §4, §1
Experimental method: the activity against Holotrichia diomphalia Bates was determined by the insect-dipping method. The early 2nd-instar grubs of Holotrichia diomphalia Bates were selected. The target insects were dipped into the pesticide solution for 10 s and then taken out. Excess pesticide solution was absorbed with filter paper. […] A treatment without the pesticide was set as the blank control.
The test insects were transferred to a multi-well culture plate with fresh potato pieces and placed in an observation room, and the temperature, humidity and illumination of the observation room could be adjusted as needed. The number of dead and live insects was investigated 72 hours later. The corrected mortality rate was calculated using the Abbott's formula, and statistical analysis was performed with the DPS data processing software to obtain the toxicity regression equation and LC50 value of each single test pesticide and each mixture of different ratios.

Rhizoctonia solani = assay: Control efficacy against Rhizoctonia solani, rice seedling potting method, Example 89, Table 89; settings: rice seedlings, foliar spraying
Procedure: Control efficacy of the composition containing the compound I-72 against Rhizoctonia solani
Test target: Rhizoctonia solani, a sensitive strain cultured indoors.
The trial adopted the seedling potting method. Test crop: rice. Experimental method: the rice seedlings were cultured to the 2-leaf stage in the greenhouse of the experimental materials. Foliar spraying treatment was performed on the crop sprayer according to the designed dosage. The test target strain was inoculated 24 hours after the pesticide treatment. All the inoculated experimental materials were cultured in a phytotron. […] The disease grading and the calculation method of the control efficacy both referred to the agricultural industry standards of the People's Republic of China.

[5] = tested on: Aphis gossypii Glover nymphs; assay: Joint toxicity of I-72 + organophosphorus insecticides, cotton leaf spraying, Example 17, Table 17; settings: 48 h
Procedure: Test target: Aphis gossypii Glover nymphs, a sensitive strain reared indoors.
as §1
Experimental method: first, cotton leaves with uniform and consistent Aphis gossypii were selected, with about 20 insects on each leaf. Then, they were evenly sprayed with the pesticide solution in the order from low dosage to high dosage according to the experimental design, with 1.5 mL for each leaf and 3 replicates for each treatment. In addition, a blank control was set up.
(§6) The treated test materials were placed in an observation room, and the temperature, humidity and illumination of the observation room could be adjusted as needed. The number of dead and live insects was investigated 48 hours later. The corrected mortality rate was calculated using the Abbott's formula, and statistical analysis was performed with the DPS data processing software to obtain the toxicity regression equation, LC50 value and 95% confidence limit of each single test pesticide and each mixture of different ratios. Then, the co-toxicity coefficient of each ratio was calculated using the Sun Y-P method to evaluate the mixing effect (the same as in Example 1).

[6] = tested on: 3rd-instar larvae of Chilo suppressalis (Walker); assay: Joint toxicity of I-72 + organophosphorus insecticides, rice seedling dipping, Example 15, Table 15; settings: 3rd-instar larvae, rice seedling dipping, 48 h, A = compound I-72, B = diazinon, read-out: LC50
Procedure: Test target: 3rd-instar larvae of Chilo suppressalis (Walker), a sensitive strain reared indoors.
as §1
as §5, with “first, tender and fresh rice seedlings were selected” for “first, tender corn stems were selected”, “they were cut into small sections of 5 cm, placed in” for “they were placed in”, “blank control was set” for “blank control (CK) was set”
as §6

[7] = tested on: Frankliniella occidentalis Pergande; assay: Joint toxicity of I-72 + organophosphorus insecticides, leaf dipping, Example 14, Table 14; settings: in Phaseolus vulgaris, foliar, 48 h
Excerpt: Test target: Frankliniella occidentalis Pergande, a sensitive strain reared indoors.
Experimental method: first, kidney bean leaves were selected and dipped in the prepared pesticide solution for 10 s in the order from low dosage to high dosage according to the experimental design. After natural air-drying in the shade, they were placed in a 9-cm-diameter Petri dish with filter paper, and uniform and healthy test insects were introduced, with about 20 insects for each treatment and 3 replicates for each treatment. In addition, a blank control was set up.

[8] = tested on: 3rd-instar larvae of Hyphantria cunea; assay: Joint toxicity of I-72 + organophosphorus insecticides, poplar leaf dipping, Example 20, Table 20; settings: foliar, A = compound I-72, B = phoxim, poplar leaf dipping, 72 hours, read-out: LC50
Excerpt: Test target: 3rd-instar larvae of Hyphantria cunea, a sensitive strain reared indoors.
Experimental method: first, fresh and tender poplar leaves were selected, cut into small sections of 5 cm, and dipped in the prepared pesticide solution for 10 s in the order from low dosage to high dosage according to the experimental design. After natural air-drying in the shade, they were placed in a 9-cm-diameter Petri dish with filter paper, and uniform and healthy test insects were introduced, with 10 insects for each treatment and 3 replicates for each treatment. In addition, a blank control was set up.
The treated test materials were placed in an observation room, and the temperature, humidity and illumination of the observation room could be adjusted as needed. The number of dead and live insects was investigated 72 hours later.

[9] = Sitobion miscanthi, in Triticum aestivum, 48 h, read-out: Measured mortality rate
[10] = Ostrinia nubilalis, read-out: Mortality rate (%)
[11] = Ostrinia furnacalis, 72 h, read-out: Measured mortality rate

CC(C)(C)[C@@H](O)[C@@H](Cc1ccc(Cl)cc1)n1cncn1 (racemic) [Paclobutrazol]
mortality at 1 µg/mL [1, 9]: 6.8% | mortality at 10 µg/mL [1, 9]: 7.8% | mortality at 100 µg/mL [1, 9]: 11.3%

CN(C)C(CSS(=O)(=O)[O-])CSS(=O)(=O)[O-].[Na+].[Na+] [Bisultap, bisultap]
Mortality rate (%) ([2]; single agent 0.1 mg/L): 0% | Mortality rate (%) ([2]; single agent 1 mg/L): 4.17% | Mortality rate (%) ([2]; single agent 5 mg/L): 10.42% | Mortality rate (%) ([2]; single agent 10 mg/L): 22.92%

CC(C)[C@H](C)[C@@H](O)[C@H](O)[C@@H](C)[C@H]1CC[C@H]2[C@@H]3COC(=O)[C@H]4C[C@H](O)[C@H](O)C[C@]4(C)[C@H]3CC[C@]12C [Brassinolide]
Measured mortality rate ([1]; 0.5 mg/L): 6.7% | Measured mortality rate ([1]; 10 mg/L): 8.8% | Measured mortality rate ([1]; 200 mg/L): 12.6%

CN(C)C(CSC(N)=O)CSC(N)=O [Cartap, cartap]
mortality at 0.1 µg/mL [2, 10]: 2.08% | mortality at 1 µg/mL [2, 10]: 10.4% | mortality at 5 µg/mL [2, 10]: 20.8% | mortality at 10 µg/mL [2, 10]: 43.8%

Nc1nc(N)nc(NC2CC2)n1 [Cyromazine]
mortality at 0.1 µg/mL [3, 11]: 6.9% | mortality at 2 µg/mL [3, 11]: 10.7% | mortality at 40 µg/mL [3, 11]: 21.2%

O=P(O)(O)CCCl [Ethephon]
mortality at 0.2 µg/mL [1, 9]: 7% | mortality at 10 µg/mL [1, 9]: 8.8% | mortality at 500 µg/mL [1, 9]: 15%

Cc1cc(C)cc(C(=O)N(NC(=O)c2ccc3c(c2C)OC(C)C3)C(C)(C)C)c1 (centres unmarked) [Fufenozide]
Measured mortality rate ([3]; 0.1 mg/L): 9.4% | Measured mortality rate ([3]; 2 mg/L): 15.4% | Measured mortality rate ([3]; 40 mg/L): 41.9%

C=C1C[C@]23C[C@@]1(O)CC[C@H]2[C@@]12C=C[C@H](O)[C@@](C)(C(=O)O1)[C@H]2[C@@H]3C(=O)O [Gibberellic acid]
mortality at 0.5 µg/mL [1, 9]: 5.9% | mortality at 10 µg/mL [1, 9]: 10% | mortality at 200 µg/mL [1, 9]: 12.5%

COc1cccc(C(=O)NN(C(=O)c2cc(C)cc(C)c2)C(C)(C)C)c1C [Methoxyfenozide]
mortality at 0.1 µg/mL [3, 11]: 11.1% | mortality at 2 µg/mL [3, 11]: 18.8% | mortality at 40 µg/mL [3, 11]: 50%

CN(C)C(CSS(=O)(=O)[O-])CSS(=O)(=O)O.[Na+] [Monosultap, monosultap]
Mortality rate (%) ([2]; single agent 0.1 mg/L): 0% | Mortality rate (%) ([2]; single agent 1 mg/L): 6.25% | Mortality rate (%) ([2]; single agent 5 mg/L): 18.75% | Mortality rate (%) ([2]; single agent 10 mg/L): 29.17%

CC(COc1ccc(Oc2ccccc2)cc1)Oc1ccccn1 (centres unmarked) [Pyriproxyfen]
mortality at 0.04 µg/mL [3, 11]: 7.1% | mortality at 2 µg/mL [3, 11]: 9.7% | mortality at 100 µg/mL [3, 11]: 16.1%

CC1=CC(=O)CC(C)(C)[C@@]1(O)/C=C/C(C)=C/C(=O)O [S-abscisic acid]
Measured mortality rate ([1]; 1 mg/L): 7.9% | Measured mortality rate ([1]; 10 mg/L): 8.3% | Measured mortality rate ([1]; 100 mg/L): 10.3%

CCc1ccc(C(=O)NN(C(=O)c2cc(C)cc(C)c2)C(C)(C)C)cc1 [Tebufenozide]
mortality at 0.1 µg/mL [3, 11]: 10.3% | mortality at 2 µg/mL [3, 11]: 17.2% | mortality at 40 µg/mL [3, 11]: 46.4%

CO/C=C(/C(=O)OC)c1ccccc1Oc1cc(Oc2ccccc2C#N)ncn1 [azoxystrobin]
LC50 ([4]; A = compound I-72, B = azoxystrobin, insect-dipping, 72 hours): 473.5404 µg/mL (≈ 1170 µM)

CCCCc1c(C)c2ccc(OCc3ccccc3/C(=C\OC)C(=O)OC)cc2oc1=O [coumoxystrobin]
Control efficacy (Rhizoctonia solani; 5 mg/L, A = compound I-72, B = coumoxystrobin): 44.3% | Control efficacy (Rhizoctonia solani; 10 mg/L, A = compound I-72, B = coumoxystrobin): 61.9% | Control efficacy (Rhizoctonia solani; 20 mg/L, A = compound I-72, B = coumoxystrobin): 81.5%

CCOP(=S)(OCC)Oc1cc(C)nc(C(C)C)n1 [diazinon]
LC50 [5]: 20.5 µg/mL | LC50 [6]: 6.22 µg/mL

CC1COC(Cn2cncn2)(c2ccc(Oc3ccc(Cl)cc3)cc2Cl)O1 (centres unmarked) [difenoconazole]
LC50 ([4]; Holotrichia diomphalia, 72 h): 500 µg/mL (≈ 1230 µM)

CCOC(=O)CC(SP(=S)(OC)OC)C(=O)OCC (centres unmarked) [malathion]
LC50 [7]: 52.3 µg/mL

CCOP(=S)(OCC)O/N=C(\C#N)c1ccccc1 [phoxim]
LC50 ([5]; nymphs, cotton leaf spraying, A = compound I-72, B = phoxim, read-out: LC50): 31.6 µg/mL | LC50 [8]: 10.1 µg/mL

CO/C=C(/C(=O)OC)c1ccccc1COc1cc(-c2ccc(Cl)cc2)nn1C [pyraoxystrobin]
Control efficacy (Rhizoctonia solani; 5 mg/L, A = compound I-72, B = pyraoxystrobin): 42.8% | Control efficacy (Rhizoctonia solani; 10 mg/L, A = compound I-72, B = pyraoxystrobin): 71.5% | Control efficacy (Rhizoctonia solani; 20 mg/L, A = compound I-72, B = pyraoxystrobin): 82.4%

CC(C)(C)C(O)(CCc1ccc(Cl)cc1)Cn1cncn1 (centres unmarked) [tebuconazole]
LC50 ([4]; Holotrichia diomphalia, 72 h): 477 µg/mL (≈ 1550 µM)
